Source: EP4813463A2, “TYK2 INHIBITORS AND COMPOSITIONS AND METHODS THEREOF” (Lynk Pharmaceuticals Co. Ltd., priority 2023, dated 2024)
≈ marks a conversion by molar mass, not a printed value. Where two headings read alike, the source gives them in different places.

Key:
Kinetic solubility = format: physicochemical; details: kinetic from dmso stock, 100 mM pH 7.4 phosphate buffer, 1% DMSO, room temperature, read-out: Kinetics Solubility_PBS7.4
Procedure, shortened: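 Compounds diluted from 10 mM/5 mM DMSO stocks into 100 mM phosphate buffer pH 7.4 (1% DMSO final), shaken 2 h at room temperature, then centrifuged. Dissolved compound in supernatant quantified by LC-MS/MS against a standard curve.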

[1] = system: Ba/F3-FL-TYK2-P760L cells; test: Anti-proliferative assay in engineered Ba/F3 cells (Cell-Titer Glo, 72 h); format: cell-based; details: Mus musculus, concentration that causes 50% growth inhibition, read-out: Baf3-FL-T2P760L
Procedure, shortened: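 Ba/F3 cells carrying Tel-dimerization/JAK kinase fusion, IL-3-independent, in RPMI-1640 + 10% FBS; 9-point 3-fold dilutions from 20 µM (0.1% DMSO) added after 24 h, 72 h at 37 °C. Viability by Cell-Titer Glo ATP luminescence; % inhibition versus DMSO cells, blank-corrected, giving IC50.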

TYK2-JH2 domain = target: T1, TYK2-JH2 domain (Homo sapiens, UniProt P29597); test: Binding activity test for JH2 domain of TYK2 (Tb-antibody/tracer FRET)
T1 construct: JAK1-JH2 domain or TYK2-JH2 domain enzyme in assay buffer
Procedure, shortened: (§1)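 Competitive TR-FRET binding: compounds dispensed as an 11-point 3-fold dilution series, then Tb-labelled antibody and tracer added to the JH2 protein system. Incubated at 25°C, then overnight at 4°C; FRET signal read on Envision and IC50 (nM) derived.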

[2] = Microsomal metabolic stability assay; format: in vitro ADME; details: human, liver microsomes, 0.5 mg/mL microsomal protein, 1 µM test article, 2 mM NADPH; for half-life at 1 µM: read-out: Human LM T1/2; for microsomal CLint at 1 µM: read-out: Human LM Clint
Procedure, shortened: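 Test or control compound (1 µM) incubated with microsomes (0.5 mg/mL protein) in 100 mM potassium phosphate pH 7.4, 1.0 mM EDTA at 37°C, started with NADPH regenerating system (2 mM NADPH). Sampled at 0, 5, 15, 30, 45 min, acetonitrile-quenched, LC/MS/MS. T1/2 from ln %remaining vs time slope; CLint = 0.693/T1/2 per mg protein/mL.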

IFNa pSTAT1 = test: Phosphorylation of STAT1 inhibition in HMC3 cells by Jess; format: cell-based; details: Homo sapiens; HMC3 microglia cells, 50ng/mL hINFα 1 hour, Jess western; read-out: Jess_HMC3 IC50 (IFNa pSTAT1)
Experimental: Seeding HMC3 cells into 12-well plate and incubate overnight. Pre-stimulation with recombinant human IFNα (Sino biological, H08Y), treat cells with compound with different concentration for 1hr. After compound treatment, stimulate HMC3 cells with 50ng/mL hINFα for another 1 hour (for CCF-STTG1 cells IFNα induction time is 30 mins). And then wash cells with DPBS once gently and lyse cells with pre-cooled RIPA buffer (Sigma, R0278-500ML) for 30min on ice to harvest cells. Centrifuge cell lysate for 20 mins at 12000rpm with freezer centrifuge (Thermo Scientific, Heraeus Fresco 21) to extract protein. Prepare samples with Jess Simple Wes kit (SM-WO04) and then run western blot on Jess simple western system (Protein simple, JS-4631). Collect data and analyzed with GraphPad Prism.

JAK1-JH2 domain = target: T2, JAK1-JH2 domain (Homo sapiens, UniProt P23458); test: Binding activity test for JH2 domain of JAK1 (Tb-antibody/tracer FRET)
T2 construct: JAK1-JH2 domain or TYK2-JH2 domain enzyme in assay buffer
Procedure, shortened: as §1

[3] = ratio of JAK1 JH2 to TYK2 JH2 binding IC50
[4] = phosphate buffer, pH 7.4, aqueous buffer
[5] = BaF3, 72 h, 72 h compound treatment
[6] = JH2 domain enzyme; 60 min at 25°C, then 4°C overnight; read-out: TYK2 JH2 Binding IC50
[7] = JH2 domain enzyme; 60 min at 25°C, then 4°C overnight; read-out: JAK1 JH2 Binding IC50

T2 sequence (P23458 583-855 limits assumed): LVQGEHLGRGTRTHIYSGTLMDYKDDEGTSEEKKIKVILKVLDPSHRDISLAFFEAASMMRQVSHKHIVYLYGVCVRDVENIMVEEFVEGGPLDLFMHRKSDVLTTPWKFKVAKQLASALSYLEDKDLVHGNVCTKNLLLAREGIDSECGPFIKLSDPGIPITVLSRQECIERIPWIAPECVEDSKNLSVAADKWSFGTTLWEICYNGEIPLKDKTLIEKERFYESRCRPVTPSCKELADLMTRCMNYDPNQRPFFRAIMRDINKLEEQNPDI
T1 sequence (P29597 589-875 limits assumed): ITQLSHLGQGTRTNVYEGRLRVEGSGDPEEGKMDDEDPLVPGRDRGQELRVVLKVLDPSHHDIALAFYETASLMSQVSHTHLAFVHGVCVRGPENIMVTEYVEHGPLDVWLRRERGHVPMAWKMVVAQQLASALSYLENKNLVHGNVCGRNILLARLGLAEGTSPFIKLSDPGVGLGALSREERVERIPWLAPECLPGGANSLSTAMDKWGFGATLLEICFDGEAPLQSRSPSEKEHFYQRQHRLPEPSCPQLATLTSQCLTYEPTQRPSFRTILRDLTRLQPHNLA

SMILES | solubility kinetic at 2 h (Kinetic solubility; aqueous buffer) [µM] | IC50 ([1]; BaF3, 72 h compound treatment) [nM] | JAK1/TYK2 selectivity (TYK2-JH2 domain; [3]) | IC50 (TYK2-JH2 domain; read-out: TYK2 JH2 Binding IC50; JH2 domain enzyme; 60 min at 25°C, then 4°C overnight) [nM] | half-life at 1 µM ([2]; pH 7.4) [h] | microsomal CLint at 1 µM [2] [µL/min/mg] | IC50 (IFNa pSTAT1) [nM] | IC50 (JAK1-JH2 domain; read-out: JAK1 JH2 Binding IC50; JH2 domain enzyme; 60 min at 25°C, then 4°C overnight) [nM] | solubility kinetic at 2 h (Kinetic solubility; [4]) [µM] | IC50 [1, 5] [nM] | IC50 (TYK2-JH2 domain; [6]) [nM] | microsomal CLint at 1 µM ([2]; pH 7.4) [µL/min/mg] | IC50 (JAK1-JH2 domain; [7]) [nM]
COC(=O)c1cnc(NC(=O)[C@@H]2C[C@@H]2F)cc1Nc1nn(C)c2ccc(C(O)C(F)(F)F)c(OC)c12 (single isomer, unassigned) [Example 122A, Methyl 6-((1S,2S)-2-fluorocyclopropane-1-carboxamido)-4-((4-methoxy-1-methyl-5-((S*)-2,2,2-trifluoro-1-hydroxyethyl)-1H-indazol-3-yl)amino) nicotinate] | 10.3 (≈ 5.27 µg/mL) | 0.8 | 216.29 | 0.072 | 1.49 | 15.5 | 0.239 | 15.6 |  |  |  |  | 
[2H]C([2H])([2H])NC(=O)c1cnc(NC(=O)C2CC2)cc1Nc1cnn2ccc([C@H](O)C(F)(F)F)c(OC)c12 [Example 7A, (S)-6-(cyclopropanecarboxamido)-4-((4-methoxy-5-(2,2,2-trifluoro-1-hydroxyethyl)pyrazolo[1,5-a]pyridin-3-yl)amino)-N-(methyl-d3)nicotinamide] |  |  | 107.6 |  | 1.48 |  | 1.04 |  | 52.1 (≈ 25.1 µg/mL) | 5.4 | 0.097 | 15.6 | 10.4
[2H]C([2H])([2H])NC(=O)c1cnc(NC(=O)C2CC2)cc1Nc1cnn2ccc([C@@H](O)C(F)(F)F)c(OC)c12 [Example 7B, (R)-6-(cyclopropanecarboxamido)-4-((4-methoxy-5-(2,2,2-trifluoro-1-hydroxyethyl)pyrazolo[1,5-a]pyridin-3-yl)amino)-N-(methyl-d3)nicotinamide] |  |  | 24.4 |  | 2.14 |  |  |  | 55.8 (≈ 26.9 µg/mL) | 223 | 0.528 | 10.8 | 12.9
[2H]C([2H])([2H])NC(=O)c1cnc(Nc2ccn(C)n2)cc1Nc1cnn2ccc([C@H](O)C(F)(F)F)c(OC)c12 [Example 21, (S)-4-((4-methoxy-5-(2,2,2-trifluoro-1-hydroxyethyl)pyrazolo[1,5-a]pyridin-3-yl)amino)-N-(methyl-d3)-6-((1-methyl-1H-pyrazol-3-yl)amino)nicotinamide] |  |  | 142.7 |  | 1.01 |  |  |  | 57.2 (≈ 28.2 µg/mL) | 15.7 | 0.077 | 22.8 | 11
[2H]C([2H])([2H])NC(=O)c1cnc(Nc2cc(C)nc(C)n2)cc1Nc1cnn2ccc([C@H](O)C(F)(F)F)c(OC)c12 [Example 25, (S)-6-((2,6-Dimethylpyrimidin-4-yl)amino)-4-((4-methoxy-5-(2,2,2-trifluoro-1-hydroxyethyl)pyrazolo[1,5-a]pyridin-3-yl)amino)-N-(methyl-d3)nicotinamide] |  |  | 169.1 |  |  |  |  |  | 43 (≈ 22.3 µg/mL) | 5.01 | 0.068 |  | 11.5
[2H]C([2H])([2H])NC(=O)c1cnc(NC(=O)C2CC2)cc1Nc1cnn2ccc([C@H](OC)C(F)(F)F)c(OC)c12 [Example 27, (S)-6-(cyclopropanecarboxamido)-4-((4-methoxy-5-(2,2,2-trifluoro-1-methoxyethyl)pyrazolo[1,5-a]pyridin-3-yl)amino)-N-(methyl-d3)nicotinamide] |  |  | 128.0 |  |  |  |  |  | 14.2 (≈ 7.06 µg/mL) | 8.54 | 0.064 |  | 8.19
[2H]C([2H])([2H])NC(=O)c1nnc(NC(=O)C2CC2)cc1Nc1cnn2ccc([C@H](O)C(F)(F)F)c(OC)c12 [Example 30, (S)-6-(cyclopropanecarboxamido)-4-((4-methoxy-5-(2,2,2-trifluoro-1-hydroxyethyl)pyrazolo[1,5-a]pyridin-3-yl)amino)-N-(methyl-d3)pyridazine-3-carboxamide] |  |  | 124.4 |  | 1.36 |  |  |  | 42 (≈ 20.2 µg/mL) | 7.96 | 0.088 | 17 | 10.9
COC(=O)c1cnc(NC(=O)C2CC2)cc1Nc1nn(C)c2ccc([C@H](OC)C(F)(F)F)c(OC)c12 [Example 45B, Methyl (S)-6-(cyclopropanecarboxamido)-4-((4-methoxy-1-methyl-5-(2,2,2-trifluoro-1-methoxyethyl)-1H-indazol-3-yl)amino)nicotinate] |  |  | 197.30 |  | 1.26 |  | 4.8 |  | 9.37 (≈ 4.75 µg/mL) | 2.53 | 0.124 | 18.4 | 24.5
COC(=O)c1cnc(NC(=O)C2CC2)cc1Nc1nn(C)c2ccc([C@H](O)C(F)(F)F)c(OC)c12 [Example 48A, Methyl (S)-6-(cyclopropanecarboxamido)-4-((4-methoxy-1-methyl-5-(2,2,2-trifluoro-1-hydroxyethyl)-1H-indazol-3-yl)amino)nicotinate] |  |  | 158.89 |  |  |  | 1.03 |  | 6.98 (≈ 3.44 µg/mL) | 1.5 | 0.145 |  | 23
[2H]C([2H])([2H])NC(=O)c1cnc(NC(=O)C2CC2)cc1Nc1nn(C)c2ccc([C@H](O)C(F)(F)F)c(OC)c12 [Example 49A, (S)-6-(cyclopropanecarboxamido)-4-((4-methoxy-1-methyl-5-(2,2,2-trifluoro-1-hydroxyethyl)-1H-indazol-3-yl)amino)-N-(methyl-d3)nicotinamide] |  |  | 49.3 |  | 1.19 |  | 0.084 |  | 45.5 (≈ 22.5 µg/mL) | 0.464 | 0.107 | 19.3 | 5.28
[2H]C([2H])([2H])O[C@@H](c1ccc2c(c(Nc3cc(NC(=O)C4CC4)ncc3C(=O)OC)nn2C)c1OC)C(F)(F)F [Example 50B, Methyl (S)-6-(cyclopropanecarboxamido)-4-((4-methoxy-1-methyl-5-(2,2,2-trifluoro-1-(methoxy-d3)ethyl)-1H-indazol-3-yl)amino)nicotinate] |  |  | 162.94 |  | 2.11 |  | 9.3 |  | 7.23 (≈ 3.69 µg/mL) | 2.85 | 0.177 | 10.9 | 28.8
[2H]C([2H])([2H])NC(=O)c1cnc(NC(=O)C2CC2)cc1Nc1nn(C)c2ccc([C@H](OC([2H])([2H])[2H])C(F)(F)F)c(OC)c12 [Example 55A, (S)-6-(cyclopropanecarboxamido)-4-((4-methoxy-1-methyl-5-(2,2,2-trifluoro-1-(methoxy-d3)ethyl)-1H-indazol-3-yl)amino)-N-(methyl-d3)nicotinamide] |  |  | 48.9 |  |  |  |  |  | 7.78 (≈ 3.99 µg/mL) | 0.352 | 0.052 |  | 2.54
